Eight molecules from US5849525A, “Compositions corresponding to a proton-coupled peptide transporter and methods of making and using same” (Brigham and Women's Hospital, Inc., priority 1995, dated 1998) can be followed below.

The target in data set [1] is T1, proton-coupled peptide transporter (Oryctolagus cuniculus, UniProt P36836).
T1 construct: Xenopus laevis oocytes were injected with cRNA coding the proton-coupled peptide transporter; expressed in transfected cells; host or cells: Xenopus laevis oocytes injected with cRNA transcribed in vitro from the cloned cDNA
T1 sequence (P36836 1-707): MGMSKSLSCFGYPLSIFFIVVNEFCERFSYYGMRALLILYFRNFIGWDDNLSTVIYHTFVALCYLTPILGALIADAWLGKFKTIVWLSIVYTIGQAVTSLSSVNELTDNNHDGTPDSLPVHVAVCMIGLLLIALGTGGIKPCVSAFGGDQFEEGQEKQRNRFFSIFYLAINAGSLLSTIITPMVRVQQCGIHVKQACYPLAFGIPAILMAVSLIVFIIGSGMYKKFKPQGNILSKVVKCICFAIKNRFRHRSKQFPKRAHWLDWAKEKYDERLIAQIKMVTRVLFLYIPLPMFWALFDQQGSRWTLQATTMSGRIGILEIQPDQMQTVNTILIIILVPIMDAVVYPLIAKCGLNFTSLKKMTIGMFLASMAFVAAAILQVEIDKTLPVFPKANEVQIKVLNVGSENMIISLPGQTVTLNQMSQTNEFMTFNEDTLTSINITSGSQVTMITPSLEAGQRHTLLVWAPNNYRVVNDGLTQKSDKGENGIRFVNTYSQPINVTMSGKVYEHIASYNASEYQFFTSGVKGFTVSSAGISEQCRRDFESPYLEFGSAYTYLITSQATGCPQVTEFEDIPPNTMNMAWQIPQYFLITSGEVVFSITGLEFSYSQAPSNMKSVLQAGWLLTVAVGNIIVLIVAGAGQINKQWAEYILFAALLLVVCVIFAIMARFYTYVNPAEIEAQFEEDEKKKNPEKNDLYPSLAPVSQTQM
The experiment in a line: Two-electrode voltage clamp of Xenopus laevis oocytes injected with transporter cRNA: substrate-evoked inward currents and Km. The data set is classed as cell-based, rabbit. The following applies: uptake solution pH 5.5. From the text:
These oocytes were subjected to two electrode voltages clamp analysis (Gene Clamp 500, Axon Instruments, California) in the manner described in Kanaisy & Hediger, M. A. Nature 360, 467-71 (1992).
FIG. 9 depicts electrophysiological measurements of transformed cocytes as a percent of glycyl-sarcosine evoked current. Data representing glycyl-sarcosine are depicted as a solid black bar. Data representing peptide are depicted with dotted bars. Data representing antibiotics are depicted with hatched bars.
By altering peptide concentrations, current amplitudes for different compositions, Km values were determined.
A general note: Two-electrode voltage clamp is typically applied to oocytes expressing channels or transporters.

For data set [2], the target named is proton-coupled peptide transporter derived from rabbit (rabbit).
Data set [3] shares this target. The source holds these as a separate data set.
In data set [4] the target is T1, proton-coupled peptide transporter. Description: Hybrid depletion of rabbit small intestine poly(A)+ RNA with antisense/sense DNA oligonucleotide before oocyte injection, glycyl-sarcosine uptake. As to conditions: oocytes receiving rabbit poly(A)+ RNA without sense or antisense nucleic acid. It is filed as cell-based. The source says:
This example describes hybrid depletion of rabbit small intestine poly(A)^+ RNA before injection into Xenopus laevis oocytes. A first admixture was formed of rabbit small intestine derived poly(A)^+ RNA and an antisense DNA oligonucleotide corresponding to the 5'-end coding region of cDNA corresponding to the proton-coupled peptide transporter.
A second admixture was formed of rabbit small intestine derived poly(A)^+ RNA and a sense DNA oligonucleotide corresponding to the same region as the antisense DNA. Both DNAs were twenty-three nucleotides in length. Rabbit jejunum poly(A)^+ RNA (0.5 μg/μl) was incubated with the oligonucleotide (0.25 μg/μl in the presence of 50 mM NaCl at 42° C. for one hour and then injected into oocytes. The uptake of the peptide, glycyl-sarcosine, was measured three days after injection.

The target is the same in data set [5]. Description: Uptake of C14-glycyl-sarcosine by Xenopus laevis oocytes injected with rabbit jejunum poly(A)+ RNA or transporter cRNA. The data set is classed as cell-based. As to conditions: 100 μM C14-Gly-Sar, 1 hour, pH 5.5. As for the experimental part: This example describes the uptake of radiolabeled glycyl-sarcosine (C^14 -Gly-Sar) by Xenopus laevis oocytes injected with poly(A)^+ RNA from rabbit jejunum or with cRNA synthesized by in vitro transcription of proton-coupled peptide transporter cDNA.
All uptakes in this and the following figures were performed with 6-8 oocytes, 3 days after injection. RNA-injected oocytes were injected with 25 ng cRNA in 50 nl.
Oocytes injected with cRNA coding a proton-coupled peptide transporter were incubated for 1 hour in uptake solution (100 mM NaCl, 2 mM KCl 1 mM MgCl2, 1 mM CaCl2, 3 mM HEPES, 3 mM MES, 3 mM Tris, pH 5.5) in the presence of 100 μM C^14 -glycol-sarcosine (specific radioactivity, 112 mCi/mmol, custom synthesized by the Radiochemical Center, Amersham, U.K.). The oocytes were rinsed with ice-cold washing solution (uptake solution with pH adjusted to 7.5 with Tris base) and the radioactivity of each oocyte was measured by scintillation counting.

Data set [6] deals with Xenopus laevis oocytes. The experiment in a line: Thin-layer chromatography of solubilized oocytes incubated in 14C-Gly-Sar (hydrolysis). The following applies: 1 mM 14C-Gly-Sar, pH 5.5, seven hours. The data set is classed as in vitro ADME.
The target of data set [7] is T1, proton-coupled peptide transporter. The experiment in a line: Intracellular pH (pH-sensitive microelectrode) and membrane potential of cRNA-transformed oocytes. It is filed as cell-based, rabbit. As to conditions: pHo 5.5 solution, Gly-Sar 10 mM; for membrane potential Vm after application: depolarized from -20 mV. From the text:
The example describes hydrogen ion cotransport by Xenopus laevis oocytes transformed with cRNA coding a proton-coupled peptide transporter. Transformed Xenopus laevis oocytes of Example 5 and 6 were implanted with microelectrodes and membrane potential set with electrodes.
Internal pH measurements were taken with microelectrodes, silanized borosilicate pipettes with tips filled with a hydrogen ionophore (I-cocktail B, Fluka). […] After washing with uptake solution without glycyl-sarcosine, each oocyte was clamped at this membrane potential. […] The equation used to calculate the electrochemical potential difference for H^+ (ΔμH) was ΔμH +=RT 1n ([H^+ ] i/[H^+ ]o)+zF (Vi -Vo) and that for Gly-Sar (ΔμGly-Sar) was ΔμGly-Sar =RT 1n ([Gly-Sar] i/ [Gly-Sar]o), where; R is the gas constant, T the absolute temperature (295° K.), F is Faraday's constant, pHi and pHo the intra- and extracellular pH, Gly-Sari and Gly-Saro, the intra-and extracelluar Gly-Sar concentrations, and z the valency.
Oocytes were initially kept in pH 7.4 medium (96 mM NaCl, 1 mM KCl, 1.8 mM CaCl2, 1.0 mM MgCl2 and 5 HEPES). […] In water-injected oocytes, lowering pHo from 7.4 to 5.5 caused a continuous pHi decrease which was not dependent on the expression of the proton-coupled peptide transporter.

The target is the same in data set [8]. Description: C14-glycyl-sarcosine uptake in cRNA-transformed oocytes in sodium-free or chloride-free solutions and at different pH. It is filed as cell-based, rabbit. From the text:
This example describes the stoichiometry and voltage dependence of the proton-coupled peptide transporter. Four days after transformation with cRNA coding the proton-coupled peptide transporter, Xenopus laevis oocytes were examined in the presence of 1 mMC^14 -glycyl-sarcosine in standard uptake solution (pH 5.5), modified to be sodium or chloride ion free.
In sodium-free solutions, the sodium chloride was replaced with choline-chloride. In chloride free solutions, the sodium chloride was replaced with sodium nitrate.
Glycyl-sarcosine uptake was determined from the slope of the time-dependence of 1 to 5 minutes uptake. The results are depicted in bar graph form in FIG. 10. […] That is, the presence of or absence of sodium ion and the presence or absence of chloridion had little or no effect on glycyl-sarcosine uptake. In each instance the uptake was approximately 1000 pmol glycyl-sarcosine.
In this example Xenopus laevis oocytes transformed with cRNA coding the proton-coupled peptide transporter of the preceding example were evaluated for C^14 -glycyl-sarcosine uptake in the standard uptake solutions modified to different pH. Glycyl-sarcosine uptake was determined from the slope of time-dependence of 1 to 5 minute uptakes.

Data set [9] shares this target. Description: Stoichiometry (uptake versus net charge flux) and cumulative C14-glycyl-sarcosine uptake in cRNA-transformed oocytes. The data set is classed as cell-based, rabbit. As for the experimental part:
Internal pH measurements were taken with microelectrodes, silanized borosilicate pipettes with tips filled with a hydrogen ionophore (I-cocktail B, Fluka). The membrane potential was measured in uptake solution (pH 5.5) containing 1 mM glycyl-sarcosine. After washing with uptake solution without glycyl-sarcosine, each oocyte was clamped at this membrane potential. […] The equation used to calculate the electrochemical potential difference for H^+ (ΔμH) was ΔμH +=RT 1n ([H^+ ] i/[H^+ ]o)+zF (Vi -Vo) and that for Gly-Sar (ΔμGly-Sar) was ΔμGly-Sar =RT 1n ([Gly-Sar] i/ [Gly-Sar]o), where; R is the gas constant, T the absolute temperature (295° K.), F is Faraday's constant, pHi and pHo the intra- and extracellular pH, Gly-Sari and Gly-Saro, the intra-and extracelluar Gly-Sar concentrations, and z the valency.
This 1:1 coupling ratio is consistent with analysis of the coupling ratio based on thermodynamic considerations. Cumulative uptake of C^14 -glycyl-sarcosine was measured as depicted in FIG. 14.
Data represent the average of the uptakes from 20-24 oocytes after subtraction of the uptakes of water-injected oocytes. After a ten hour incubation in 1 mM non-radiolabeled 1 mM glycyl-sarcosine, the ^14 C-glycyl-sarcosine influx was 1754±403 (n=7) pmol/oocyte.

Substrate in data set [10]: NCC(=O)NCC(=O)NCC(=O)O
Description: cells, lysate or membranes. As to conditions: other: current amplitudes at altered substrate concentrations, pH 5.5, cRNA-injected oocytes.

Substrate in data set [11]: CC1(C)S[C@@H]2[C@H](NC(=O)C3(N)CCCCC3)C(=O)N2[C@H]1C(=O)O
Description: cells, lysate or membranes. The following applies: other: current amplitudes at altered substrate concentrations, pH 5.5, cRNA-injected oocytes.

Substrate in data set [12]: C[C@H](N)C(=O)N[C@@H](CC(=O)O)C(=O)O
The experiment in a line: cells, lysate or membranes. The data set is classed as cell-based, rabbit. The following applies: other: current amplitudes at altered substrate concentrations, pH 5.5, cRNA-injected oocytes.

Substrate in data set [13]: CN(CC(=O)O)C(=O)CN
Description: cells, lysate or membranes. It is filed as cell-based, rabbit. The following applies: other: current amplitudes at altered substrate concentrations, pH 5.5, cRNA-injected oocytes.

Substrate in data set [14]: CC(C)C[C@H](NC(=O)CN)C(=O)O
The experiment in a line: cells, lysate or membranes. It is filed as cell-based, rabbit. As to conditions: other: current amplitudes at altered substrate concentrations, pH 5.5, cRNA-injected oocytes.

Square brackets hold non-standard residues; d marks the D form. Peptide text beside a SMILES is read from it. Sar = CNCC(=O)O

Consider `CC(C)C[C@H](NC(=O)CN)C(=O)O` [Glycyl-leucine], for which, in data set [1], the substrate-evoked inward current result was “inward current”.
Take glycyl-sarcosine (peptide): in [2], the Km from current amplitudes amounted to 1900 µM. For the same molecule, the uptake of C14-glycyl-sarcosine by oocytes in data set [3] amounted to 200 pmol.
For the molecule `CC1=C(C(=O)O)N2C(=O)[C@@H](NC(=O)[C@H](N)C3=CCC=CC3)[C@H]2SC1` [cephradine], in data set [1], the substrate-evoked inward current result is on record as “Significant currents”.
The same measure, in the same setting: the same measure for `CC1(C)S[C@@H]2[C@H](NC(=O)C3(N)CCCCC3)C(=O)N2[C@H]1C(=O)O` [Cyclacillin]: “inward current”.
Consider `CN(CC(=O)O)C(=O)CN` [Glycyl-sarcosine, glycyl-sarcosine] (H-Gly-[Sar]-OH), for which the values for the uptake of glycyl-sarcosine entry in data set [4], in data set [5] (oocytes receiving rabbit jejunum poly(A)+ RNA) and in data set [5] (oocytes receiving transporter cRNA) were “approximately 8 pmol”, “less than 20 pmol” and about 200 pmol, respectively. For the same molecule, the substrate-evoked inward current result in data set [1] is “strongest current”. Also, the “fraction of intracellular 14C-label that is hydrolyzed glycyl-sarcosine” value in data set [6] is on record as “no more than one third”. In addition, in [7], the “membrane potential Vm after application” value was “+15 mV”. Moreover, the “effect on intracellular pH (pHi)” value in data set [7] (listed as Gly-Sar) was “large intracellular acidification”; in data set [7] (listed as glycyl-sarcosine), “decrease in pH”. Further, in data set [8] (1 mM C14-glycyl-sarcosine, pH 5.5, presence or absence of sodium or chloride ion), the glycyl-sarcosine uptake entry was “approximately 1000 pmol”. Moreover, the “pH of maximum glycyl-sarcosine uptake” value in data set [8] (standard uptake solutions modified to different pH) is reported as 5.5. Moreover, the “time to thermodynamic equilibrium of cumulative uptake” value in [9] (C14-glycyl-sarcosine, cRNA-transformed oocytes) is reported as “approximately eight”. This molecule also registered a 14C-glycyl-sarcosine influx in [9] (after ten hour incubation in 1 mM non-radiolabeled glycyl-sarcosine, n=7) of 1754±403 pmol/oocyte.
Take `CC1=C(C(=O)O)N2C(=O)[C@@H](NC(=O)[C@H](N)c3ccc(O)cc3)[C@H]2SC1` [cefadroxil]: the substrate-evoked inward current entry in data set [1] is on record as “Significant currents”.
Turning to `NCC(=O)O` [glycine], in data set [7], the “effect on intracellular pH (pHi)” value is recorded as “no detectable response” and the “membrane potential Vm after application” value is recorded as “no detectable response”.

B1: proton-coupled peptide transporter (Oryctolagus cuniculus) (protein)
chain: T1 sequence (P36836 1-707)
notes: Xenopus laevis oocytes were injected with cRNA coding the proton-coupled peptide transporter; expressed in transfected cells; host or cells: Xenopus laevis oocytes injected with cRNA transcribed in vitro from the cloned cDNA
For the molecule B1, the Km in data set [10] worked out at 5100 µM; in [11], 137 µM; in [12] it was 143 µM; in data set [13], 1900 µM; in [14], 81 µM.

Usually Km stands for the substrate concentration at which the rate is half of its maximum.
